One test has as its target T1, aurora2 kinase (Homo sapiens, UniProt O14965).
T1 construct: made in house; host or cells: Spodoptera frugiperda Sf21 insect cells (baculovirus)
T1 sequence (O14965 1-403): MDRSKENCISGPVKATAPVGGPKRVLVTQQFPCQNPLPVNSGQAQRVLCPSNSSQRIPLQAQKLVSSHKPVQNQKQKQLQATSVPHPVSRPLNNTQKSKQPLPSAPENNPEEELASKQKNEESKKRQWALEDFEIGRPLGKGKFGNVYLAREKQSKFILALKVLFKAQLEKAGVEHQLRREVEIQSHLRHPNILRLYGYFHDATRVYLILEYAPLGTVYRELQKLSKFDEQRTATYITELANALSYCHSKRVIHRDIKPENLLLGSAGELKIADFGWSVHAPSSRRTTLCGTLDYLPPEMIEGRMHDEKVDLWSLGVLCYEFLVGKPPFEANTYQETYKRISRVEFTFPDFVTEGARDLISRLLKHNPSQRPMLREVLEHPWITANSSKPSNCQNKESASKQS
In words: In Vitro aurora2 kinase inhibition test. It counts as biochemical.

The test system of test [1] is MCF-7 cells. In words: In Vitro cell proliferation assay, Assay 1 (CyQUANT cell density). The class given is cell-based. Conditions: Homo sapiens, MCF7, 72 h, MCF-7, 3 days in presence of compound, read-out: concentration giving 50% inhibition of cell proliferation. An excerpt:
(§1) These and other assays can be used to determine the ability of a test compound to inhibit the growth of adherent mammalian cell lines, for example the human tumour cell line MCF7.
MCF-7 (ATCC HTB-22) or other adherent cells were typically seeded at 1×10^3 cells per well (excluding the peripheral wells) in DMEM (Sigma Aldrich) without phenol red, plus 10% foetal calf serum, 1% L-glutamine and 1% penicillin/streptomycin in 96 well tissue culture treated clear plates (Costar). The following day (day 1), the media was removed from a no treatment control plate and the plate stored at −80° C. The remaining plates were dosed with compound (diluted from 10 mM stock in DMSO using DMEM (without phenol red, 10% FCS, 1% L-glutamine, 1% penicillin/streptomycin). Untreated control wells were included on each plate. After 3 days in the presence/absence of compound (day 4) the media was removed and the plates stored at −80° C. Twenty four hours later the plates were thawed at room temperature and cell density determined using the CyQUANT cell proliferation assay kit (c-7026/c-7027 Molecular Probes Inc.) according to manufacturers directions. Briefly, 200 μl of cell lysis/dye mixture (10 μl of 20× cell lysis buffer B, 190 μl of sterile water, 0.25 μl of CYQUANT GR dye) was added to each well and the plates incubated at room temperature for 5 minutes in the dark. […]

Test [2] has as its system MCF-7 cells. In words: In Vitro cell proliferation assay, Assay 2 (BrdU incorporation). The class given is cell-based. Conditions: Homo sapiens, MCF7; MCF-7, 48 hours with compound, 2 hour BrdU labelling; read-out: concentration giving 50% inhibition of BrdU incorporation.
From the text: as §1
This assay determines the ability of at test compound to inhibit the incorporation of the thymidine analogue, 5′-bromo-2′-deoxy-uridine (BrdU) into cellular DNA. MCF-7 or other adherent cells were typically seeded at 0.8×10^4 cells per well in DMEM (Sigma Aldrich) without phenol red, plus 10% foetal calf serum, 1% L-glutamine and 1% penicillin/streptomycin (50 μl/well) in 96 well tissue culture treated 96 well plates (Costar) and allowed to adhere overnight. […] The optical density of the wells was then determined at 690 nm wavelength using a Titertek Multiscan plate reader. […]

The subject of another test is MCF7 cells. In words: In Vitro cell cycle analysis assay (FACS). To be noted: 10 μM, 24 hours. It counts as cell-based, human. On the procedure:
This assay determines the ability of a test compound to arrest cells in specific phases of the cell cycle. Many different mammalian cell lines could be used in this assay and MCF7 cells are included here as an example. MCF-7 cells were seeded at 3×10^5 cells per T25 flask (Costar) in 5 ml DMEM (no phenol red 10% FCS, 1% L-glutamine 1% penicillin/streptomycin). Flasks were then incubated overnight in a humidified 37° C. incubator with 5% CO2. The following day 1 ml of DMEM (no phenol red 10% FCS, 1% L-glutamine 1% penicillin/streptomycin) carrying the appropriate concentration of test compound solubilised in DMSO was added to the flask. A no compound control treatments was also included (0.5% DMSO). The cells were then incubated for a defined time (usually 24 hours) with compound. After this time the media was aspirated from the cells and they were washed with 5 ml of prewarmed (37° C.) sterile PBSA, then detached from the flask by brief incubation with trypsin and followed by resuspension in 10 ml of 1% Bovine Serum Albumin (BSA, Sigma-Aldrich Co.) in sterile PBSA. The samples were then centrifuged at 2200 rpm for 10 min. The supernatant was aspirated and the cell pellet was resuspended in 200 μl of 0.1% (w/v) Tris sodium citrate, 0.0564% (w/v) NaCl, 0.03% (v/v) Nonidet NP40, [pH 7.6]. Propridium Iodide (Sigma Aldrich Co.) was added to 40 μg/ml and RNAase A (Sigma Aldrich Co.) to 100 μg/ml. The cells were then incubated at 37° C. for 30 minutes. The samples were centrifuged at 2200 rpm for 10 min, the supernatant removed and the remaining pellet (nuclei) resuspended in 200 μl of sterile PBSA. […] The samples were then transferred to LPS tubes and DNA content per cell analysed by Fluorescence activated cell sorting (FACS) using a FACScan flow cytometer (Becton Dickinson). Typically 25000 events were counted and recorded using CellQuest v1.1 software (Verity Software). Cell cycle distribution of the population was calculated using Modfit software (Verity Software) and expressed as percentage of cells in G0/G1, S and G2/M phases of the cell cycle. […]

Regarding `COc1cc2ncnc(Nc3cnc(NC(=O)c4ccccc4)nc3)c2cc1OC` [Compound 6], the IC50 on aurora2 kinase is 0.00785 µM. In the test on MCF-7 cells [1], the IC50 was found to be 1.7 µM. Moreover, in the test on MCF-7 cells [2], the IC50 fell in the range of 1.92 to 2.85 µM. Moreover, in the test with MCF7 cells, the “% Cells in G1” value turned out to be 43.22%, the “% Cells in G2/M” value is reported as 30.38% and the “% Cells in S” value is 18%.

The values above are taken from US7235559B1, “Therapeutic quinazoline derivatives” (AstraZeneca AB, priority 1999, dated 2007).
